Laboratory results as given in EP4768487A1, “FUSED LACTAM RING COMPOUND AND USE THEREOF” (Chengdu Zenitar Biomedical Technology Co., Ltd., priority 2023, dated 2025).

What was measured:
[1] = biological target: T1, hERG potassium ion channel (Homo sapiens, UniProt Q12809); test: Inhibition of hERG potassium ion channel (Qpatch, CHO cells stably expressing hERG); type: cell-based; details: for inhibitory effects on the hERG potassium ion channel (in words): conclusion of Table 17; for inhibition at 2.5 min, 20 µM: human, CHO cells stably expressing hERG, read-out: Inhibition rate at 20 µM
T1 construct: expressed in transfected cells; host or cells: CHO cells
T1 sequence (Q12809 whole entry): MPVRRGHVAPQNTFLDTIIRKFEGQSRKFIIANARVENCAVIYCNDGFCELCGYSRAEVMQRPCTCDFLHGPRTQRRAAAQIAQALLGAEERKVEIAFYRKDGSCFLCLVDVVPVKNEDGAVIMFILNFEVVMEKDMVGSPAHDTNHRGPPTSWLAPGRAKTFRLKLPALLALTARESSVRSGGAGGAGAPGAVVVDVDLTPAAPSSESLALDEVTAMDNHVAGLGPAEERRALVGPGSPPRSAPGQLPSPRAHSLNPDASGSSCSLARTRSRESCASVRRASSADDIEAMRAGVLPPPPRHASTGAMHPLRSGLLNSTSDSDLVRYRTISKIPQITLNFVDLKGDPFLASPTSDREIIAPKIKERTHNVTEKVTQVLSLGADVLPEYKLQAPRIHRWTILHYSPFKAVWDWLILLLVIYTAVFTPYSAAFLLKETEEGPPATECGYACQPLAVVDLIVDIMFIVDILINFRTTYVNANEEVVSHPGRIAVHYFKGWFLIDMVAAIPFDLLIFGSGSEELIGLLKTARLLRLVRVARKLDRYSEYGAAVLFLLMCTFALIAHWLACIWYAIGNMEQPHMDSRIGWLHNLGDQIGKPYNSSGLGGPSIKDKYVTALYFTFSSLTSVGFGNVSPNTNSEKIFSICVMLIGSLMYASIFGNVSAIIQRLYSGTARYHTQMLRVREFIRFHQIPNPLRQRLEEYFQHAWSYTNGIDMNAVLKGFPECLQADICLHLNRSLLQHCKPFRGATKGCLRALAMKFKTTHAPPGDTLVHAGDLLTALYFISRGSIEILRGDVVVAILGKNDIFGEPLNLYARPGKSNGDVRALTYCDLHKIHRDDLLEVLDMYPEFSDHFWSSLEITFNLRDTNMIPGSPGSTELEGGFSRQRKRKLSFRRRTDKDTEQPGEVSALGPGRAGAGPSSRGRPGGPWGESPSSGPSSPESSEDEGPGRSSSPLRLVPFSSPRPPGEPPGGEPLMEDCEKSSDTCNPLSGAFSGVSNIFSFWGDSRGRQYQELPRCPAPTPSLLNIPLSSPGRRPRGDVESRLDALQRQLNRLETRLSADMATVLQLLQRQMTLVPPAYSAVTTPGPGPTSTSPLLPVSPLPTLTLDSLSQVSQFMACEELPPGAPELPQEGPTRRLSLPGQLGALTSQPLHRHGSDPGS
Procedure: Cell culture and treatment: CHO cells stably expressing hERG were cultured in a cell culture flask and incubated in an incubator with 5% CO2 at 37 °C. When the cell density reached 60%-80%, the cell culture medium was removed by pipetting. The cells were washed once with PBS, and then Detachin was added for detachment. After complete detachment, a culture medium was added for neutralization. The cells were then centrifuged, and the supernatant was removed by pipetting. A culture medium was further added for resuspension, and the cell density was adjusted to (2-5) × 10^6 cells/mL for later use.
Compound preparation: The compound stock solution was diluted with 100% DMSO. Specifically, 10 µL of the compound stock solution was added to 20 µL of DMSO, followed by a 3-fold serial dilution to obtain 6 concentrations. 4 µL of each of the 6 compound solutions at different concentrations was taken and added to 396 µL of an extracellular fluid, resulting in a 100-fold dilution to obtain 6 intermediate concentrations. Then, 80 µL of each of the 6 intermediate-concentration compound solutions was taken and added to 320 µL of an extracellular fluid, resulting in a 5-fold dilution to achieve the final test concentrations. The highest test concentration was 40 µM. […] DMSO at this concentration has no effect on the hERG potassium channel. During the compound preparation, the entire dilution process was completed by a Bravo instrument.
Electrophysiological recording process: The single-cell high-impedance sealing and whole-cell mode formation processes were all completed automatically by a Qpatch instrument. After achieving the whole-cell recording mode, the cells were clamped at -80 mV. Before a 5-second +40 mV depolarizing stimulus was applied, a 50-millisecond -50 mV prepulse voltage was first applied. The potential was then repolarized to -50 mV and held for 5 s, and finally returned to -80 mV. This voltage stimulation was applied every 15 s. After 2 min of recording, the extracellular fluid was administered, followed by recording for 5 min. Then, the compound administration process began, starting from the lowest test compound concentration. Each test concentration was applied for 2.5 min. After all the concentrations were applied consecutively, the positive control compound, 3 µM Cisapride, was administered. At least 3 cells (n ≥ 3) were tested for each concentration.
Data processing: Data analysis and processing were performed using GraphPad Prism 5.0 and Excel software. The IC50 of the compound was calculated using GraphPad Prism 5 software by equation fitting as follows: Y = Bottom + (Top−Bottom)/(1+10^(∧)((LogIC50−X)*HillSLope)) [formula] where X is the Log value of the test concentration of the test sample, Y is the inhibition percentage at the corresponding concentration, and Bottom and Top are the minimum and maximum inhibition percentages, respectively. Table 17. Results of inhibition of hERG potassium ion channel by compounds

[2] = Pharmacokinetic evaluation in Balb/c mice; type: in vivo; details: 1mg/kg, PO; for AUC(0-t) / Cmax / half-life: male, mouse, plasma
Procedure: Experimental objective: To understand the pharmacokinetic profiles of the compounds. Experimental basis: Technical guidelines for non-clinical pharmacokinetic studies of chemical drugs, 2014.
Experimental scheme: The pharmacokinetic profiles of the compounds were investigated by intravenous administration (1 mg·kg^-1) and intragastric administration (1 mg·kg^-1) in Balb/c mice.
Sample preparation: About 0.2 mg of the compound was weighed out and dissolved in 10 µL of DMSO, and then a sodium chloride solution for injection was added to prepare a 0.1 mg·mL^-1 compound solution for later administration.
Three of the mice were subjected to intravenous administration (IV) at 1 mg·kg^-1, while the other three were subjected to intragastric administration (PO) at 1 mg·kg^-1. About 0.05 mL of blood was collected at 5 min, 15 min, 30 min, 1 h, 2 h, 4 h, 6 h, 8 h, 10 h, 24 h, and 48 h after administration. The collected blood was centrifuged at 3500 rpm for 15 min. The supernatant plasma was then collected and cryopreserved at -40 °C for later analysis. The plasma concentration was quantitatively analyzed using the LC-MS/MS method, and pharmacokinetic parameters such as […] (Cmax), area under plasma concentration-time curve (AUC(0-t)), half-life (T1/2), clearance rate (CL), tissue distribution (Vdss), and bioavailability (F) were calculated. Table 18. Results of pharmacokinetic test of compounds in Balb/c mice

[3] = tested on: BRCA wild-type DLD-1 cells; test: Anti-proliferative activity against cells (CCK8): DLD-1; type: cell-based; details: Homo sapiens, 72 h + 96 h culture
In short: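 DLD-1 cells (1000/well) in RPMI-1640 with 10% FBS, treated 24 h after plating with PARPi at 0, 1 or 10 µM final. Cultured 72 h, medium exchanged with re-added PARPi, then a further 96 h; read-out by CCK8.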

[4] = tested on: CD34+ hematopoietic stem and progenitor cells (hmPB34-P-SC); test: Hematological toxicity assay (CellTiter-Glo 2.0); type: cell-based; details: 120 h; 5 days of culture
Procedure: The next day, the cells were resuspended and seeded in a 96-well plate at a concentration of 1000 cells/well, and meanwhile, different concentrations of the drug were added for treatment, with 3 replicate wells set for each concentration. After 5 days of culture, the number of viable cells in each well was determined using a CellTiter-Glo 2.0 kit, followed by detection by a microplate reader.

[5] = tested on: BRCA-mutated MDA-MB-436 cells; test: Anti-proliferative activity against cells (CCK8): MDA-MB-436; type: cell-based; details: Homo sapiens, 72 h + 96 h culture

For `CNC(=O)c1ccc(N2CCN(CC3Cc4[nH]c(=O)c(C)cc4CO3)CC2)c(Cl)n1` (stereo not shown) [Example 74, 6-Chloro-N-methyl-5-(4-((3-methyl-2-oxo-1,5,7,8-tetrahydro-2H-pyrano[4,3-b]pyridin-7-yl)methyl)piperazin-1-yl)picolinamide], the “inhibitory effects on the hERG potassium ion channel (in words)” value (from here on “inhibitory effects”) [1] was “Conclusion: Compounds 2, 6, 45, 62, 67, 74, 83, 87, etc., of the present disclosure exhibited relatively weak inhibitory effects on the hERG potassium ion channel”, the inhibition at 2.5 min, 20 µM [1] was 17.7% and the Vdss [2] was 1.06 L/kg. It also gave an AUC(0-t) [2] of 17.1 µg·h/mL, a Cmax [2] of 2.35 µg/mL and a half-life [2] of 2.52 h. The IC50 [3] was > 1 µM, the IC50 [4] was > 1 µM and the IC50 [5] was 0.007 µM.

For `CCc1cc2c([nH]c1=O)CC(CN1CCN(c3ccc(C(=O)NC)nc3F)CC1)OC2` (stereo not shown) [Compound 2, 5-(4-((3-Ethyl-2-oxo-1,5,7,8-tetrahydro-2H-pyrano[4,3-b]pyridin-7-yl)methyl)piperazin-1-yl)-6-fluoro-N-methyl picolinamide], the “inhibitory effects” value [1] was “Conclusion: Compounds 2, 6, 45, 62, 67, 74, 83, 87, etc., of the present disclosure exhibited relatively weak inhibitory effects on the hERG potassium ion channel”, the inhibition at 2.5 min, 20 µM [1] was 6.7% and the CL [2] was 0.19 L/h/kg. It also gave a Vdss [2] of 0.38 L/kg, an AUC(0-t) [2] of 5.4 µg·h/mL and a Cmax [2] of 2.35 µg/mL. The half-life [2] was 1.36 h, the IC50 [3] was > 1 µM and the IC50 [4] was 0.738 µM. The IC50 [5] was 0.00025 µM.

In the case of `CNC(=O)c1ccc(N2CCN(C[C@H]3CCc4nc(C)c(=O)[nH]c4C3)CC2)c(F)n1` [Example 45, (S)-6-Fluoro-N-methyl-5-(4-((2-methyl-3-oxo-3,4,5,6,7,8-hexahydroquinoxaline-6-yl)methyl)piperazin-1-yl)picolinamide], the “inhibitory effects” value [1] is reported as “Conclusion: Compounds 2, 6, 45, 62, 67, 74, 83, 87, etc., of the present disclosure exhibited relatively weak inhibitory effects on the hERG potassium ion channel”, the inhibition at 2.5 min, 20 µM [1] is reported as 13% and the CL [2] is reported as 0.59 L/h/kg. The Vdss [2] was 6.85 L/kg, the AUC(0-t) [2] was 1.54 µg·h/mL and the Cmax [2] was 0.359 µg/mL. For the same molecule, the half-life [2] was 7.98 h, the IC50 [3] was > 1 µM and the IC50 [4] was 0.331 µM.
